This note sets out measurements from patent US10611740B2, “Aryl dihydro-2H-benzo[b][1,4]oxazine sulfonamide and related compounds for use as agonists of RORγ and the treatment of disease” (Lycera Corporation, priority 2015, dated 2020).

Assay [1] concerns the target T1, Gal4-RORγ-LBD (Homo sapiens, UniProt P51449).
T1 construct: expressed in transfected cells; host or cells: HEK-293 cells (pcDNA3.1neo plasmid)
T1 sequence (P51449 269-508 limits assumed): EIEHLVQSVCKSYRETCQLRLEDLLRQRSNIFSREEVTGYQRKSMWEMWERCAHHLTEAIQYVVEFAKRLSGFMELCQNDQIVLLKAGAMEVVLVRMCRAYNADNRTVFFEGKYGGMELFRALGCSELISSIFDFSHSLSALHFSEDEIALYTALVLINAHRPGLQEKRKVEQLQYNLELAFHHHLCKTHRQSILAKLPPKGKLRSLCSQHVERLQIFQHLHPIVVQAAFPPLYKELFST
Description: Gal4-RORγ Luciferase Reporter Assay in HEK-293T Cells. It is filed as cell-based. The note with it: HEK-293 cells. Here is the method: Assay procedures and results are described below.
In the following protocol, HEK-293 cells were transfected with a construct comprising the Gal4 DNA binding domain fused to the ligand binding domain of RORγ (Gal4-RORγ-LBD) in a pcDNA3.1neo plasmid, and also with a reporter construct comprising pGL4.31 Gal4-luciferase (Promega). Control cells were prepared similarly using empty pcDNA3.1neo and pGL4.31 vectors.
Trans-IT reagent (Mirus, 60 μL) at room temperature was added drop wise to OptiMEM (Invitrogen, 1.5 ml). This reagent mixture was mixed by inversion then incubated for 5 to 30 minutes at room temperature. It then was added to a solution of both expression vectors (5 μg each), mixed, and incubated at room temperature for about 20 minutes. HEK-293 cells were harvested from incubation flasks by removing the media, treating with TrypLE Express (Invitrogen), and incubating until the cells detached from the bottom of the flask (approximately 2-5 minutes). 10 Million cells were collected by centrifugation and re-suspended in 10 mL of Dulbecco's Modified Eagle Medium, High Glucose (DMEM, Invitrogen) containing 10% Fetal Bovine Serum and 100 IU each of penicillin and streptomycin. The re-suspended cells and the transfection mixture were added to a T75 flask, mixed and incubated overnight at 37° C. and 5% CO2.
The cells were harvested as described above, counted, and centrifuged to obtain the desired number of cells, then re-suspended in complete growth media at 0.75×10^6 cells/mL. The RORγ antagonist, ursolic acid, was added to the cells at a final concentration of 2 μM. Cells were plated at 20 μL of cell suspension/well (10,000-15,000 cells/well) in white tissue culture treated 384 well plates. Test compounds were dissolved at 10 mM in DMSO then diluted into complete growth medium to 5× the final intended test concentration. These drug stock solutions, 5 μL/well were added to the tissue culture plate. The final DMSO concentration was 0.2%. The plates were briefly centrifuged then incubated overnight at 37° C. and 5% CO2. To conduct the assay, the tissue culture plates were allowed to equilibrate to room temperature and One-Glo luciferase reagent (Promega, 25 μL/well) was added. The plates were briefly centrifuged then incubated at room temperature for 10 minutes. The luciferase intensity was read on an Envision plate reader (Perkin Elmer). […] The luciferase signal in the absence of ursolic acid or test compound is defined at 100. The Max Response is the upper plateau in the signal as determined by line-fit using a 4-parameter logistic model in PRISM (GraphPad).
In general terms: In a reporter assay the amount or activity of a reporter protein is the signal.

The target of assay [2] is T2, RORγ-LBD (Homo sapiens, UniProt P51449).
T2 construct: made in house; host or cells: SF9 cells (baculovirus)
T2 sequence (P51449 269-508 limits assumed): T1 sequence (P51449 269-508 limits assumed)
As to the kind of experiment: RORγ-Ligand Binding Domain (LBD) TR-FRET Assay.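 As to TR-FRET Assay Max Response: 665/615 nm ratio relative to signal without ursolic acid or compound set at 100.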 It is filed as biochemical. Put shortly:
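TR-FRET read-out using a biotin-tagged SRC1 coactivator LXXLL peptide (200 nM final), with the antagonist ursolic acid present at 2 μM final. Receptor is His-tagged LBD expressed in SF9 cells, ~3 nM final in pH 7.0 Tris/KCl/EDTA/DTT/BSA buffer; compounds in 1% DMSO final.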

Setting [3] is: luciferase reporter, with 2 μM ursolic acid.

As for `COc1ccnc(-c2ccc3c(c2)N(S(=O)(=O)c2cccc(C(F)(F)F)c2)C[C@H](CCC(=O)O)O3)n1` [Compound 4C, (S)-3-(6-(4-methoxypyrimidin-2-yl)-4-((3-(trifluoromethyl)-phenyl)sulfonyl)-3,4-dihydro-2H-benzo[b][1,4]oxazin-2-yl)propanoic acid], in assay [1] (setting [3]), the 50% effective concentration (EC50) (usually the midpoint of the concentration-response curve) is 500 to 5000 nM and the “Gal4-RORγ Assay Max Response” value is “** (The symbol “**” indicates a value in the range of greater than 90 to 150)”.
`O=C(O)C1(C[C@H]2CN(S(=O)(=O)c3cccc(C(F)(F)F)c3)c3cc(-c4cccc(F)c4F)ccc3O2)CCOCC1` [Compound 78P, (S)-4-((6-(2,3-difluorophenyl)-4-((3-(trifluoromethyl)phenyl)-sulfonyl)-3,4-dihydro-2H-benzo[b][1,4]oxazin-2-yl)methyl)tetrahydro-2H-pyran-4-carboxylic acid]: in assay [1] (2 μM ursolic acid), the EC50 is < 500 nM and the “Gal4-RORγ Assay Max Response” value is “** (The symbol “**” indicates a value in the range of greater than 90 to 150)”.
For `O=C(O)CC[C@H]1CN(S(=O)(=O)c2cccc(C(F)(F)F)c2)c2cc(-c3cc(F)cc(F)c3)c(Cl)cc2O1` [Compound 22L, (S)-3-(7-chloro-6-(3,5-difluoro-phenyl)-4-((3-(trifluoromethyl)-phenyl)sulfonyl)-3,4-dihydro-2H-benzo[b][1,4]oxazin-2-yl)propanoic acid], in that order: < 500 nM and “** (The symbol “**” indicates a value in the range of greater than 90 to 150)”.
As for `CC(=O)N[C@H]1C[C@@H]([C@H]2CN(S(=O)(=O)c3cccc(C(F)(F)F)c3)c3cc(-c4cc(F)ccc4F)ccc3O2)C1` [Compound 60L, N-((1R,3s)-3-((S)-6-(2,5-difluorophenyl)-4-((3-(trifluoro-methyl)phenyl)sulfonyl)-3,4-dihydro-2H-benzo[b][1,4]-oxazin-2-yl)cyclobutyl)-acetamide], in assay [1] (2 μM ursolic acid), the EC50 was < 500 nM and the “Gal4-RORγ Assay Max Response” value is reported as “** (The symbol “**” indicates a value in the range of greater than 90 to 150)”.
For the compound `COc1cc(F)c(F)c(-c2ccc3c(c2)N(S(=O)(=O)c2cccc(C(F)(F)F)c2)C[C@H](CC2(C(=O)O)CCOCC2)O3)c1` [Compound 78U, (S)-4-((6-(2,3-difluoro-5-methoxyphenyl)-4-((3-(trifluoromethyl)phenyl)sulfonyl)-3,4-dihydro-2H-benzo[b][1,4]oxazin-2-yl)methyl)tetrahydro-2H-pyran-4-carboxylic acid], in assay [1] (2 μM ursolic acid), the concentration for a half-maximal effect (EC50) is < 500 nM and the “Gal4-RORγ Assay Max Response” value is given as “** (The symbol “**” indicates a value in the range of greater than 90 to 150)”.
For `C[C@]1(C(=O)O)C[C@H](C[C@H]2CN(S(=O)(=O)c3cccc(C(F)(F)F)c3)c3cc(-c4cc(F)cc(F)c4Cl)ccc3O2)C1` [Compound 60F, (1S,3r)-3-(((S)-6-(2-chloro-3,5-difluorophenyl)-4-((3-(trifluoro-methyl)phenyl)sulfonyl)-3,4-dihydro-2H-benzo[b][1,4]oxazin-2-yl)methyl)-1-methylcyclo-butane-1-carboxylic acid], in that order: < 500 nM and “** (The symbol “**” indicates a value in the range of greater than 90 to 150)”.
Turning to `O=C(O)C1(C[C@H]2CN(S(=O)(=O)c3cccc(C(F)(F)F)c3)c3cc(-c4cc(F)cc(F)c4)ccc3O2)CCOCC1` [Compound 78N, (S)-4-((6-(3,5-difluorophenyl)-4-((3-(trifluoromethyl)phenyl)-sulfonyl)-3,4-dihydro-2H-benzo[b][1,4]oxazin-2-yl)methyl)tetrahydro-2H-pyran-4-carboxylic acid], in assay [1] (2 μM ursolic acid), the 50% effective concentration (EC50) was < 500 nM and the “Gal4-RORγ Assay Max Response” value is on record as “** (The symbol “**” indicates a value in the range of greater than 90 to 150)”.
Turning to `O=C(O)C1(C[C@H]2CN(S(=O)(=O)c3cccc(C(F)F)c3)c3cc(-c4cc(F)ccc4F)ccc3O2)COC1` [Compound 51H, (S)-3-((4-((3-(difluoromethyl)-phenyl)sulfonyl)-6-(2,5-difluorophenyl)-3,4-dihydro-2H-benzo[b][1,4]oxazin-2-yl)methyl)oxetane-3-carboxylic acid], in assay [1] (2 μM ursolic acid), the EC50 is 500 to 5000 nM and the “Gal4-RORγ Assay Max Response” value is reported as “** (The symbol “**” indicates a value in the range of greater than 90 to 150)”.
Consider `O=C(O)C1(C[C@H]2CN(S(=O)(=O)c3cncc(C(F)(F)F)c3)c3cc(-c4cc(F)ccc4F)ccc3O2)COC1` [Compound 51K, (S)-3-((6-(2,5-difluorophenyl)-4-((5-(trifluoromethyl)pyridin-3-yl)sulfonyl)-3,4-dihydro-2H-benzo[b][1,4]oxazin-2-yl)methyl)oxetane-3-carboxylic acid], for which, in assay [1] (2 μM ursolic acid), the EC50 lay in the range of 500 to 5000 nM and the “Gal4-RORγ Assay Max Response” value is listed as “*** (The symbol “***” indicates a value in the range of greater than 150 to 200)”.
On to `O=C(O)[C@]1(C[C@H]2CN(S(=O)(=O)c3cccc(C(F)(F)F)c3)c3cc(-c4cc(F)cc(OC(F)F)c4)ccc3O2)C[C@@H](O)[C@@H](O)C1` [Compound 64, (1s,3R,4S)-1-(((S)-6-(3-(difluoromethoxy)-5-fluorophenyl)-4-((3-(trifluoromethyl)phenyl)sulfonyl)-3,4-dihydro-2H-benzo[b][1,4]oxazin-2-yl)methyl)-3,4-dihydroxycyclopentane-1-carboxylic acid], for which, in assay [1] (2 μM ursolic acid), the EC50 was 500 to 5000 nM and the “Gal4-RORγ Assay Max Response” value was “** (The symbol “**” indicates a value in the range of greater than 90 to 150)”.
For the compound `CC(=O)N[C@H]1C[C@H]([C@H]2CN(S(=O)(=O)c3cccc(C(F)(F)F)c3)c3cc(-c4cc(F)ccc4F)ccc3O2)C1` [Compound 60M, N-((1S,3r)-3-((S)-6-(2,5-difluorophenyl)-4-((3-(trifluoro-methyl)phenyl)sulfonyl)-3,4-dihydro-2H-benzo[b][1,4]-oxazin-2-yl)cyclobutyl)-acetamide], in assay [1] (2 μM ursolic acid), the half-maximal effective concentration (EC50) is < 500 nM and the “Gal4-RORγ Assay Max Response” value is listed as “** (The symbol “**” indicates a value in the range of greater than 90 to 150)”.
For `COc1cc(F)cc(-c2ccc3c(c2)N(S(=O)(=O)c2cccc(C(F)(F)F)c2)C[C@H](CC2(C(=O)O)CCOCC2)O3)c1` [Compound 78R, (S)-4-((6-(3-fluoro-5-methoxy-phenyl)-4-((3-(trifluoromethyl)-phenyl)sulfonyl)-3,4-dihydro-2H-benzo[b][1,4]oxazin-2-yl)methyl)tetrahydro-2H-pyran-4-carboxylic acid], in that order: < 500 nM and “** (The symbol “**” indicates a value in the range of greater than 90 to 150)”.
For the compound `O=C(O)C1(C[C@H]2CN(S(=O)(=O)c3cc(F)cc(C(F)(F)F)c3)c3cc(-c4cc(F)cc(OC(F)F)c4)ccc3O2)COC1` [Compound 51I, (S)-3-((6-(3-(difluoromethoxy)-5-fluorophenyl)-4-((3-fluoro-5-(trifluoromethyl)phenyl)sulfonyl)-3,4-dihydro-2H-benzo[b][1,4]-oxazin-2-yl)methyl)oxetane-3-carboxylic acid], in assay [1] (2 μM ursolic acid), the EC50 is < 500 nM and the “Gal4-RORγ Assay Max Response” value was “* (The symbol “*” indicates a value in the range of 25 to 90)”.
Turning to `O=C(O)CC[C@H]1CN(S(=O)(=O)c2cccc(C(F)(F)F)c2)c2cc(-c3ccc(F)cc3F)ccc2O1` [Compound 2D, (S)-3-(6-(2,4-difluorophenyl)-4-((3-(trifluoromethyl)phenyl)-sulfonyl)-3,4-dihydro-2H-benzo[b][1,4]oxazin-2-yl)propanoic acid], in assay [2], the EC50 is < 500 nM and the “TR-FRET Assay Max Response” value is recorded as “** (The symbol “**” indicates a value in the range of greater than 90 to 150)”.
